Results as given in patent publication US20240246941A1, “SUBSTITUTED 4-(3-AMINOPROP-1-YL)AMINOQUINOLINE ANALOGS AS MODULATORS OF MELANOMA-ASSOCIATED ANTIGEN 11 UBIQUITIN LIGASE” (ST. JUDE CHILDREN'S RESEARCH HOSPITAL, INC., priority 2020, published 2024).

target: MAGE-A11:PCF11 (Homo sapiens (Human), UniProt P43364); assay: TR-FRET single point screening at 15 μM; assay type: binding; set-up: unit not given here; details: single point TR-FRET screening at 15 μM against MAGE-A11:PCF11
Summary of the method: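 Single-point screen at 15 μM (0.25% DMSO) measuring disruption of GST-MAGEA11 (5 nM) binding to FAM-PCF11_4 peptide (200 nM) detected by Tb-anti-GST (5 nM). Buffer 50 mM Tris pH 7.5, 20 mM MgCl2, 0.1 mg/ml BSA, 1 mM DTT; 90 min at ~25 °C; 520/490 nm ratio converted to % inhibition versus controls.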

Chain of MAGE-A11:PCF11 (P43364 218-429): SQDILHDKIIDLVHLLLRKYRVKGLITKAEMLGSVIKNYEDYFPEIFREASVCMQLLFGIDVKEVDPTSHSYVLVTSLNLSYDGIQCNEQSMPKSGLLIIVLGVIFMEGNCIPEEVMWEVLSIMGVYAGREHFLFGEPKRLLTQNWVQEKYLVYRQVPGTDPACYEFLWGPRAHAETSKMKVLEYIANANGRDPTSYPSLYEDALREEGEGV

Structure (SMILES) | TR-FRET signal
COc1ccc2nc3cc(Cl)ccc3c(NCCCNCc3cc4ccccc4o3)c2c1 [SJ000520997] | −146.7
COc1ccc(F)c(CNCCCNc2c3ccc(Cl)cc3nc3ccc(OC)cc23)c1 [SJ000520998] | −355
COc1ccc2nc3cc(Cl)ccc3c(NCCCNCc3c(F)cccc3C(F)(F)F)c2c1 [SJ000520999] | −116.7
COc1ccc2nc3cc(Cl)ccc3c(NCCCNCc3cc4ccccc4s3)c2c1 [SJ000521000] | −220.4
COc1ccc2nc3cc(Cl)ccc3c(NCCCNCc3cc(OC(F)(F)F)ccc3OC)c2c1 [SJ000521001] | −231.8
COc1ccc2nc3cc(Cl)ccc3c(NCCCNCc3cc(C(F)(F)F)ccc3OC)c2c1 [SJ000521002] | −290.2
COc1ccc2nc3cc(Cl)ccc3c(NCCCNCC3CCOC3)c2c1 (stereo not drawn) [SJ000521003] | −442.3
COc1ccc2nc3cc(Cl)ccc3c(NCCCNCc3cccc(F)c3)c2c1 [SJ000521004] | −366.2
CCc1ccc(CNCCCNc2c3ccc(Cl)cc3nc3ccc(OC)cc23)cc1 [SJ000521005] | −390.4
COc1ccc2nc3cc(Cl)ccc3c(NCCCNCc3nccn3C)c2c1 [SJ000521006] | −279.9
Clc1ccc2c(NCCCCN(Cc3ccccc3)Cc3ccccc3)ccnc2c1 [SJ000522718] | 17.35
Clc1ccc2c(NCCCCN(Cc3ccccc3)Cc3ccc4c(c3)OCO4)ccnc2c1 [SJ000522723] | 16.51
COc1ccc(CN(CCCCNc2ccnc3cc(Cl)ccc23)Cc2ccccc2)cc1 [SJ000522724] | 6.683
Fc1ccc(CN(CCCCNc2ccnc3cc(Cl)ccc23)Cc2ccccc2)cc1 [SJ000522725] | 30.2
COc1ccccc1CN(CCCCNc1ccnc2cc(Cl)ccc12)Cc1ccccc1 [SJ000522726] | 19.4
CN(C)c1ccc(CN(CCCCNc2ccnc3cc(Cl)ccc23)Cc2ccccc2)cc1 [SJ000522727] | 21.52
COc1ccc(CN(CCCCNc2ccnc3cc(Cl)ccc23)Cc2ccccc2)cc1OC [SJ000522728] | 0.05797
Clc1ccc2c(NCCCCN(CCCc3ccccc3)Cc3ccccc3)ccnc2c1 [SJ000522729] | 27.82
CCCN(CCCNc1c2ccc(Cl)cc2nc2ccc(OC)cc12)CCC(C)c1ccccc1 (stereo not drawn) [SJ000522731] | −121
CCCN(CCCNc1c2ccc(Cl)cc2nc2ccc(OC)cc12)Cc1c(F)cccc1OC [SJ000522733] | −187.1
CCCN(CCCNc1c2ccc(Cl)cc2nc2ccc(OC)cc12)Cc1ccc([N+](=O)[O-])s1 [SJ000522735] | −154.4
CCCN(CCCNc1c2ccc(Cl)cc2nc2ccc(OC)cc12)Cc1cn(C(C)=O)c2ccccc12 [SJ000522736] | −192.4
CCCN(CCCNc1c2ccc(Cl)cc2nc2ccc(OC)cc12)Cc1cccc(C#N)c1 [SJ000522739] | −94.54

same assay, conditions: single point TR-FRET screening of quinoline compounds against MAGE-A11:PCF11; 15 μM

Structure (SMILES) | TR-FRET signal
CCCN(CCCNc1ccnc2cc(C(F)(F)F)ccc12)Cc1cncc(Br)c1 [SJ000521007] | 4.323
CCCN(CCCNc1ccnc2cc(C(F)(F)F)ccc12)Cc1cccc(F)c1 [SJ000521008] | 27.85
CCCN(CCCNc1ccnc2cc(C(F)(F)F)ccc12)Cc1ccc(CC)cc1 [SJ000521009] | 31.77
CCCN(CCCNc1ccnc2cc(C(F)(F)F)ccc12)Cc1nc(C)cs1 [SJ000521010] | 0.8927
CCCN(CCCNc1ccnc2cc(C(F)(F)F)ccc12)CCOCc1ccccc1 [SJ000521011] | 25.82
CCCN(CCCNc1ccnc2cc(C(F)(F)F)ccc12)Cc1ccc(OC)c(F)c1 [SJ000521013] | 21.76
CCCN(CCCNc1ccnc2cc(C(F)(F)F)ccc12)Cc1cc(F)ccc1C [SJ000521014] | 20.64
CCCN(CCCNc1ccnc2cc(C(F)(F)F)ccc12)Cc1ccc(Cl)c(C(F)(F)F)c1 [SJ000521015] | 11.04
Cn1cccc1CNCCCNc1ccnc2cc(Cl)ccc12 [SJ000521019] | 18.96
Cn1cc(CNCCCNc2ccnc3cc(Cl)ccc23)c2ccccc21 [SJ000521020] | 18.47
COC(=O)CCCCCNCCCNc1ccnc2cc(Cl)ccc12 [SJ000521021] | 39.12
Clc1ccc2c(NCCCNCc3nccs3)ccnc2c1 [SJ000521023] | 4.988
CC(C)(C)CCNCCCNc1ccnc2cc(Cl)ccc12 [SJ000521026] | 9.225
CCCCNCCCNc1ccnc2cc(Cl)ccc12 [SJ000521027] | 8.454
Clc1ccc2c(NCCCNCc3cc(Br)cs3)ccnc2c1 [SJ000521028] | 22.11
Clc1ccc2c(NCCCNCc3cc4ccccc4o3)ccnc2c1 [SJ000521029] | 17.91
Clc1ccc2c(NCCCNCc3cc4ccccc4s3)ccnc2c1 [SJ000521032] | 30.13
Clc1ccc2c(NCCCNCc3csc4ccccc34)ccnc2c1 [SJ000521033] | 33.38
Clc1ccc2c(NCCCNCc3nc4ccccc4s3)ccnc2c1 [SJ000521034] | 4.695
Clc1ccc2c(NCCCNCc3cncc(Br)c3)ccnc2c1 [SJ000521037] | 7.014

Structure (SMILES) | TR-FRET signal
Clc1ccc2c(NCCCNCC3CCOC3)ccnc2c1 (stereo not drawn) [SJ000521038] | 0.4026
Cn1ccnc1CNCCCNc1ccnc2cc(Cl)ccc12 [SJ000521040] | 1.449
Cn1cccc1CNCCCNc1ccnc2cc(C(F)(F)F)ccc12 [SJ000521041] | −6.879
FC(F)(F)c1ccc2c(NCCCNCc3cccnc3)ccnc2c1 [SJ000521042] | 15.04
Cn1cc(CNCCCNc2ccnc3cc(C(F)(F)F)ccc23)c2ccccc21 [SJ000521043] | 29.11
COC(=O)CCCCCNCCCNc1ccnc2cc(C(F)(F)F)ccc12 [SJ000521044] | 19.59
FC(F)(F)c1ccc2c(NCCCNCc3nccs3)ccnc2c1 [SJ000521046] | 7.779
CC(C)(C)CCNCCCNc1ccnc2cc(C(F)(F)F)ccc12 [SJ000521053] | 27.36
CCCCNCCCNc1ccnc2cc(C(F)(F)F)ccc12 [SJ000521055] | 18.54
FC(F)(F)c1ccc2c(NCCCNCc3cc(Br)cs3)ccnc2c1 [SJ000521056] | 32.72
FC(F)(F)c1ccc2c(NCCCNCc3cc4ccccc4o3)ccnc2c1 [SJ000521057] | 27.48
FC(F)(F)c1ccc2c(NCCCNCc3cc4ccccc4s3)ccnc2c1 [SJ000521060] | 35.63
FC(F)(F)c1ccc2c(NCCCNCc3csc4ccccc34)ccnc2c1 [SJ000521061] | 41.86
FC(F)(F)c1ccc2c(NCCCNCc3nc4ccccc4s3)ccnc2c1 [SJ000521062] | 14.43
FC(F)(F)c1ccc2c(NCCCNCC3CCOC3)ccnc2c1 (stereo not drawn) [SJ000521065] | 15.56
Cn1ccnc1CNCCCNc1ccnc2cc(C(F)(F)F)ccc12 [SJ000521068] | 10.19
Clc1ccc2c(NCCCN(Cc3ccccc3)Cc3ccc[nH]3)ccnc2c1 [SJ000522717] | 20.46
Clc1ccc2c(NCCCN(Cc3ccccc3)Cc3ccc4c(c3)OCO4)ccnc2c1 [SJ000522719] | 9.001
COc1ccc(CN(CCCNc2ccnc3cc(Cl)ccc23)Cc2ccccc2)cc1 [SJ000522720] | 11.78
Fc1ccc(CN(CCCNc2ccnc3cc(Cl)ccc23)Cc2ccccc2)cc1 [SJ000522721] | 18.08

Structure (SMILES) | TR-FRET signal
COc1ccccc1CN(CCCNc1ccnc2cc(Cl)ccc12)Cc1ccccc1 [SJ000522722] | 4.43
CCCN(CCCNc1c2ccc(Cl)cc2nc2ccc(OC)cc12)CCCSC [SJ000522730] | 0.7867
CCCN(CCCNc1c2ccc(Cl)cc2nc2ccc(OC)cc12)Cc1ccc2[nH]ccc2c1 [SJ000522732] | 39.47
CCCN(CCCNc1c2ccc(Cl)cc2nc2ccc(OC)cc12)Cc1c(F)c(F)c(F)c(F)c1F [SJ000522734] | −2.258
CCCN(CCCNc1c2ccc(Cl)cc2nc2ccc(OC)cc12)Cc1cc2ccccc2nc1Cl [SJ000522737] | −83.74
CCCN(CCCNc1c2ccc(Cl)cc2nc2ccc(OC)cc12)Cc1ccc(Cl)c([N+](=O)[O-])c1 [SJ000522738] | −71.03
CCCN(CCCNc1c2ccc(Cl)cc2nc2ccc(OC)cc12)Cc1ccc(-c2ccccc2)cc1 [SJ000522740] | −74.01
CN(C)c1ccc(CN(CCCNc2ccnc3cc(Cl)ccc23)Cc2ccccc2)cc1 [SJ000522741] | 14.76
COc1ccc(CN(CCCNc2ccnc3cc(Cl)ccc23)Cc2ccccc2)cc1OC [SJ000522742] | −0.5383
CCCN(CCCNc1ccnc2cc(Cl)ccc12)Cc1ccccn1 [SJ000522743] | 1.313
CCCN(CCCNc1ccnc2cc(Cl)ccc12)Cc1ccsc1 [SJ000522744] | 7.824
CCCN(CCCNc1ccnc2cc(Cl)ccc12)Cc1ccccc1C(F)(F)F [SJ000522745] | −38.03
CCCN(CCCNc1ccnc2cc(Cl)ccc12)Cc1ccc2[nH]ccc2c1 [SJ000522746] | 96.84
CCCN(CCCNc1ccnc2cc(Cl)ccc12)Cc1ccccc1N [SJ000522747] | 15.43
CCCN(CCCNc1ccnc2cc(Cl)ccc12)Cc1c(F)c(F)c(F)c(F)c1F [SJ000522748] | 19.87
CCCN(CCCNc1ccnc2cc(Cl)ccc12)Cc1c(C)cc(C)cc1C [SJ000522749] | 35.43
CCCN(CCCNc1ccnc2cc(Cl)ccc12)Cc1ccc([N+](=O)[O-])s1 [SJ000522750] | 9.134
CCCN(CCCNc1ccnc2cc(Cl)ccc12)CC1CCCCC1 [SJ000522751] | 15.63
